Laboratory results reported in patent publication US5223509A, “β-carbolines as cholecystokinin and gastrin antagonists” (priority 1992, dated 1993).
Non-standard residues stand in square brackets, D forms with d. Residues, ends and D or L forms follow the SMILES beside them. *: point of attachment. sY = N[C@@H](Cc1ccc(OS(=O)(=O)O)cc1)C(=O)O; Cbz = O=C(OCc1ccccc1)*

Key:
[1] = test system: CCK; settings: recently reported, J. M. Howard et al.; cited from earlier work
[2] = test system: proteases; settings: limits duration of activity; cited from earlier work
[3] = target: T1, CCK receptor (pancreas) (Rattus norvegicus, UniProt P30551); assay: CCK Receptor Binding (Pancreas), 125I-CCK-33; parameters: species or system rat (male Sprague-Dawley); settings: for IC50: rat pancreas membranes, 125I-CCK-33, 37° C., 30 minutes; for effect on the 125I-CCK receptor binding assay: added protease inhibitors
T1 construct: The whole pancreas was dissected free of fat tissue and was homogenized; from tissue; host or cells: rat pancreas membranes (male Sprague-Dawley)
T1 sequence (P30551 1-444): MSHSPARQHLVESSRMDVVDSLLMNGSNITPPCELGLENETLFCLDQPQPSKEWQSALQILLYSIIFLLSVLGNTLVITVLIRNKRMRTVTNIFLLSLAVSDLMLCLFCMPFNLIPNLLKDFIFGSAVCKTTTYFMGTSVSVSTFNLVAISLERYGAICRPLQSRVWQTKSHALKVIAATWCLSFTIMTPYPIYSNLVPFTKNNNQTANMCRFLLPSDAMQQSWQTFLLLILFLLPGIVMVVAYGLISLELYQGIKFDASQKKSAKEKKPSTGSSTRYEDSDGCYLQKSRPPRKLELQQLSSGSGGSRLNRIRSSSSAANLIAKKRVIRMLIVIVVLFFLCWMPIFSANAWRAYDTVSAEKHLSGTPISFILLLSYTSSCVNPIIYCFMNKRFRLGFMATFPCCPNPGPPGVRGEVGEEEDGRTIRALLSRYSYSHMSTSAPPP
Protocol: 1. CCK Receptor BindinG (Pancreas)
CCK-33 was radiolabeled with ^125 I-Bolton Hunter reagent (2000 Ci/mmole) as described by Sankara et al. (J. Biol. Chem. 254: 9349-9351, 1979). Receptor bindinG was performed according to Innis and Snyder (Proc. Natl. Acad. Sci. 77: 6917-6921, 1980) with the minor modification of adding the additional protease inhibitors, phenylmethane sulfonyl fluoride and o-phenanthroline. The latter two compounds have no effect on the ^125 I-CCK receptor bindinG assay.
Male Sprague-Dawley rats (200-350 g) were sacrificed by decapitation. The whole pancreas was dissected free of fat tissue and was homogenized in 20 volumes of ice-cold 50 mM, Tris HCl (pH 7.7 at 25° C.) with a Brinkmann Polytron PT 10. The homogenates were centrifuged at 48,000 g for 10 min. Pellets were resuspended in Tris Buffer, centrifuged as above and resuspended in 200 volumes of binding assay buffer (50 mM Tris HCl, pH 7.7 at 25° C., 5 mM dithiothrietol, 0.1 mM bacitracin, 1.2 mM phenylmethane sulfonyl fluoride and 0.5 mM o-phenanthroline). For the binding assay, 25 μl of buffer (for total binding) or unlabeled CCK-8 sulfate to give a final concentration of 1 μM (for nonspecific binding) or the compounds of Formula I (for determination of inhibition of ^125 I CCK binding) and 25 μl of ^125 I-CCK 33 (30,000-40,000 cpm) were added to 450 μl of the membrane suspensions in microfuge tubes. All assays were run in duplicate or triplicate. The reaction mixtures were incubated at 37° C. for 30 minutes and centrifuged in a Beckman Microfuge (4 minutes) immediately after adding 1 ml of ice-cold incubation buffer. The supernatant was aspirated and discarded, pellets were counted with a Beckman gamma 5000. For Scatchard analysis (Ann. N.Y. Acad. Sci. 51: 660, 1949), ^125 I CCK 33 was progressively diluted with increasing concentrations of CCK 33.
1. Effect of The Compounds of Formula I on ^125 I-CCK-33 receptor binding
The preferred compounds of Formula I are those which inhibited specific ^125 I-CCK-33 binding in a concentration dependent manner.
A Ki value (dissociation constant of inhibitor) of the compounds of Formula I was estimated.

[4] = target: T2, CCK receptor (brain, cerebral cortex) (Cavia porcellus, UniProt H0VZC5); assay: CCK Receptor Binding (Brain), 125I-CCK-33; parameters: species or system guinea pig (male Hartley); settings: guinea pig cerebral cortex, 25° C., 2 hours
T2 construct: Cerebral cortex was dissected and used as a receptor source; from tissue; host or cells: guinea pig cerebral cortex membranes (male Hartley)
T2 sequence (H0VZC5 1-426): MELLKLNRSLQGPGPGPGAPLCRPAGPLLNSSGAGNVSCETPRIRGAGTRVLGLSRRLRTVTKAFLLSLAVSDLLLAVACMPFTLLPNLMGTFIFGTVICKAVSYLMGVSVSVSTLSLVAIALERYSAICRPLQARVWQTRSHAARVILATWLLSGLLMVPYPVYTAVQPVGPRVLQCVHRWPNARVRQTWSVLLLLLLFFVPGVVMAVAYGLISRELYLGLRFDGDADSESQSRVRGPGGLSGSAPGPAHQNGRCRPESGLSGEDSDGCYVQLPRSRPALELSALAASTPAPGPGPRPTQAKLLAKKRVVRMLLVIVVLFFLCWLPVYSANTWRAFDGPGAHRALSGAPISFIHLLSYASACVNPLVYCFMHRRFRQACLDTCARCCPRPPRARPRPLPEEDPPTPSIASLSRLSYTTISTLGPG
Protocol: 2. CCK Receptor Binding (Brain)
CCK 33 was radiolabeled and the binding was performed according to the description for the pancreas method with modifications according to Saito et al., J. Neurochem. 37:483-490, 1981.
Male Hartley guinea pigs (300-500 g) were sacrificed by decapitation and the brains were removed and placed in ice-cold 50 mM, Tris HCl plus 7.58 g/1 Trizma-7.4 (pH 7.4 at 25° C.). Cerebral cortex was dissected and used as a receptor source. Each gram of fresh guinea pig brain tissue was homogenized in 10 ml of Tris/Trizma buffer with a Brinkman polytron PT-10. The homogenates were centrifuged at 42,000 g for 15 minutes. Pellets were resuspended in Tris Buffer, centrifuged as above and resuspended in 200 volumes of binding assay buffer (10 mM N-2 -hydroxyethyl-piperazine-N'-2-ethane sulfonic acid (HEPES), 5 mM MgCl2, 0.25 mg/ml bacitracin, 1 mM ethylene glycol-bis-(β-aminoethylether-N,N'-tetraacetic acid) (EGTA), and 0.4% bovine serum albumin (BSA)). For the binding assay, 25 μl of buffer (for total binding) or unlabeled CCK-8 sulfate to give a final concentration of 1 μm (for nonspecific binding) or the compounds of Formula I (for determination of inhibition of ^125 I CCK binding) and 25 μl of ^125 I-CCK-33 (30,000-40,000 cpm) were added to 450 μl of the membrane suspensions in microfuge tubes. All assays were run in duplicate or triplicate. The reaction mixtures were incubated at 25° C. for 2 hours and centrifuged in a Beckman Microfuge (4 minutes) immediately after adding 1 ml of ice cold incubation buffer. The supernatant was aspirated and discarded, pellets were counted with a Beckman gamma 5000.

[5] = target: T3, gastrin receptor (gastric glands) (Cavia porcellus, UniProt H0VZC5); assay: Gastrin Receptor Binding in Guinea Pig Gastric Glands, 125I-gastrin; parameters: species or system guinea pig (male Hartley); settings: 25° C., 30 minutes
T3 construct: from tissue; host or cells: guinea pig gastric mucosal glands (male Hartley)
T3 sequence (H0VZC5 1-426): T2 sequence (H0VZC5 1-426)
Protocol: Gastrin antagonist activity of compounds of Formula I was determined using the following assay.
Gastrin Receptor Binding in Guinea Pig Gastric Glands Preparation of guinea pig gastric mucosal glands
Guinea pig gastric mucosal glands were prepared by the procedure of Berglingh and Obrink Acta Physiol. Scand. 96: 150 (1976) with a slight modification according to Praissman et al. C. J. Receptor Res. 3: (1983). Gastric mucosa from guinea pigs ( 300-500 g body weight, male Hartley) were washed thoroughly and minced with fine scissors in standard buffer consisting of the following: 130 mM NaCl, 12 mM NaHCo3, 3 mM NaH2 PO4, 3 mM Na2 HPO4, 3 mM K2 HPO4, 2 mM MgSO4, 1 mM CaCl2, 5 mM glucose and 4 mM L-glutamine, 25 mM HEPES at pH 7.4. The minced tissues were washed and then incubated in a 37° C. shaker bath for 40 minutes with the buffer containing 0.1% collagenase and 0.1% BSA and bubbled with 95% o2 and 5% CO2. The tissues were passed twice through a 5 ml glass syringe to liberate the gastric glands, and then filtered through 200 mesh nylon. The filtered glands were centrifuged at 270 g for 5 minutes and washed twice by resuspension and centrifugation.
The washed guinea pig gastric glands prepared as above were resuspended in 25 ml of standard buffer containing 0.25 mg/ml of bacitracin. For binding studies, to 220 μl of gastric glands in triplicate tubes, 10 μl of buffer (for total binding) or gastrin (1 μM final concentration, for nonspecific binding) or test compound and 10 μl of ^125 I-gastrin (NEN, 2200 Ci/mmole, 25 pM final) or ^3 H pentagastrin (NEN 22 Ci/mmole, 1 nM final) were added. The tubes were aerated with 95% O2 and 5% CO2 and capped. The reaction mixtures after incubation at 25° C. for 30 minutes were filtered under reduced pressure on glass G/F B filters (Whatman) and immediately washed further with 4×4 ml of standard buffer containing 0.1% BSA. The radioactivity on the filters was measured using a Beckman gamma 5500 for ^125 I-gastrin or liquid scintillation counting for ^3 H-pentagastrin.

IC50 [3] [µM]	IC50 [4] [µM]	IC50 [5] [µM]	SMILES	further results
9.8	~130	> 100	O=C(Nc1cc2c(cn1)[nH]c1ccccc12)c1cccs1 [Example 5, N-9H-Pyrido(3,4-b)indol-3-yl 2 thiophene Carboxamide]	–
0.04	34	14	O=C(Cc1ccccc1)Nc1cc2c(cn1)[nH]c1ccccc12 [Example 9, N-9H-Pyrido(3,4-b)indol-3-yl benzene Acetamide]	–
7.1	223	> 100	O=C(Nc1cc2c(cn1)[nH]c1ccccc12)c1ccccc1 [Example 8, N-9H-Pyrido(3,4-b)indol-3-yl benzamide]	–
> 100	> 100	> 100	Nc1cc2c(cn1)[nH]c1ccccc12 [Example 2, 3-Amino-9H-pyrido(3,4-b)indole]	–
3.5	–	–	O=C(Nc1cc2c(cn1)[nH]c1ccccc12)c1ccc(Cl)cc1 [Example 3, 4-Chloro-N-9H-pyrido(3.4-b)indol-3-yl-benzamide]	–
0.33	–	–	O=C(CCc1ccccc1)Nc1cc2c(cn1)[nH]c1ccccc12 [Example 10, N-9H-Pyrido(3,4-b)indol-3-yl benzene Propanamide]	–
0.085	–	–	O=C(Nc1ccc(Cl)cc1)Nc1cc2c(cn1)[nH]c1ccccc12 [Example 4, N-(4-Chlorophenyl)-N^1 9-H-pyrido(3,4-b)indol-3-yl-urea]	–

More lines, now with the values behind:

SMILES	IC50 [3] [µM]	IC50 [4] [µM]	IC50 [5] [µM]	further results
CSCC[C@H](NC(=O)[C@H](Cc1ccc(OS(=O)(=O)O)cc1)NC(=O)OCc1ccccc1)C(=O)NCC(=O)N[C@@H](Cc1c[nH]c2ccccc12)C(=O)N[C@@H](CCSC)C(=O)N[C@@H](CC(=O)O)C(N)=O [Cbz-Tyr(SO3 H)-Met-Gly-Trp-Met-Asp-NH2] (Cbz-[sY]MGWMD-NH2)	–	–	–	CCK agonist/antagonist character [1]: partial agonist; degradation by proteases [2]: liable to degradation by proteases
Cn1c(C(=O)Nc2cc3c(cn2)[nH]c2ccccc23)cc2ccccc21 [Example 6, N-9H-Pyrido(3,4-b)indol-3-yl-1-methyl-1H-indole-2-carboxamide]	0.71	> 100	> 100	–
c1cnc2c(c1)ccc1cccnc12 [o-phenanthroline, reference compound]	–	–	–	effect on the 125I-CCK receptor binding assay [3]: no effect
O=C(Cc1c[nH]c2ccccc12)Nc1cc2c(cn1)[nH]c1ccccc12 [Example 7, N-9H-Pyrido(3,4-b)indol-3-yl-1H-indole 3-acetamide]	0.024	–	–	–
O=S(=O)(F)Cc1ccccc1 [phenylmethane sulfonyl fluoride, reference compound]	–	–	–	effect on the 125I-CCK receptor binding assay [3]: no effect
